Assay results: publication PMC12736255, “Reinvestigating Pyrrol-2-One-Based Compounds: From Antimicrobial Agents to Promising Antitumor Candidates” (Pharmaceuticals, 2025)

Assays:
Assay in all cases: NCI-60 single-dose screen
EKVX = type: cell-based, human; conditions: Homo sapiens, 10^–5 M, read-out: GI (%)
Method in brief: (§1)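 Single-dose screen at 10^−5 M across the NCI 60-human-tumor-cell-line panel.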

NCI-H226 = type: cell-based, human; conditions: NCI-H226, 10^–5 M; for inhibition at 10 µM: Homo sapiens, read-out: GI (%)
Method in brief: as §1

786-0 = type: cell-based; conditions: Homo sapiens; 786-0, 10^–5 M; read-out: GI (%)
Method in brief: as §1

A498 = type: cell-based; conditions: Homo sapiens; A498, 10^–5 M; read-out: GI (%)
Method in brief: as §1

A549/ATCC = type: cell-based; conditions: Homo sapiens, 10^–5 M, read-out: GI (%)
Method in brief: as §1

CAKI-1 = type: cell-based; conditions: Homo sapiens; CAKI-1, 10^–5 M; read-out: GI (%)
Method in brief: as §1

CCRF-CEM = type: cell-based; conditions: Homo sapiens, 10^–5 M, read-out: GI (%)
Method in brief: as §1

COLO205 = type: cell-based; conditions: Homo sapiens, COLO 205; COLO205, 10^–5 M; read-out: GI (%)
Method in brief: as §1

HCC-2998 = type: cell-based; conditions: Homo sapiens; HCC-2998, 10^–5 M; read-out: GI (%)
Method in brief: as §1

HCT-116 = type: cell-based; conditions: Homo sapiens; HCT-116, 10^–5 M; read-out: GI (%)
Method in brief: as §1

HCT-15 = type: cell-based; conditions: Homo sapiens; HCT-15, 10^–5 M; read-out: GI (%)
Method in brief: as §1

HL-60(TB) = type: cell-based; conditions: Homo sapiens, 10^–5 M, read-out: GI (%)
Method in brief: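 Each compound is applied at 10^−5 M to human tumor lines of the NCI-60 panel, which spans nine cancer types including melanoma, renal, CNS and ovarian.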

HOP-92 = type: cell-based; conditions: Homo sapiens; HOP-92, 10^–5 M; read-out: GI (%)
Method in brief: as §1

IGROV1 = type: cell-based; conditions: Homo sapiens, IGROV-1; IGROV1, 10^–5 M; read-out: GI (%)
Method in brief: as §1

K-562 = type: cell-based; conditions: Homo sapiens, K562; K-562, 10^–5 M; read-out: GI (%)
Method in brief: as §1

KM12 = type: cell-based; conditions: Homo sapiens; KM12, 10^–5 M; read-out: GI (%)
Method in brief: as §1

LOX IMVI = type: cell-based; conditions: Homo sapiens, 10^–5 M, read-out: GI (%)
Method in brief: as §1

MCF7 = type: cell-based; conditions: Homo sapiens; MCF7, 10^–5 M; read-out: GI (%)
Method in brief: as §1

MDA-MB-231/ATCC = type: cell-based; conditions: Homo sapiens, 10^–5 M, read-out: GI (%)
Method in brief: as §1

NCI-H23 = type: cell-based; conditions: Homo sapiens; NCI-H23, 10^–5 M; read-out: GI (%)
Method in brief: as §1

NCI-H322M = type: cell-based; conditions: Homo sapiens, 10^–5 M, read-out: GI (%)
Method in brief: as §1

NCI/ADR-RES = type: cell-based; conditions: Homo sapiens, 10^–5 M, read-out: GI (%)
Method in brief: as §1

OVCAR-3 = type: cell-based; conditions: Homo sapiens; OVCAR-3, 10^–5 M; read-out: GI (%)
Method in brief: as §1

OVCAR-5 = type: cell-based; conditions: Homo sapiens; OVCAR-5, 10^–5 M; read-out: GI (%)
Method in brief: as §1

OVCAR-8 = type: cell-based; conditions: Homo sapiens; OVCAR-8, 10^–5 M; read-out: GI (%)
Method in brief: as §1

PC-3 = type: cell-based; conditions: Homo sapiens, PC-3, PC-3, 10^–5 M; read-out: GI (%)
Method in brief: as §1

SF-539 = type: cell-based; conditions: Homo sapiens; SF-539, 10^–5 M; read-out: GI (%)
Method in brief: as §1

SK-MEL-28 = type: cell-based; conditions: Homo sapiens; SK-MEL-28, 10^–5 M; read-out: GI (%)
Method in brief: as §1

SK-MEL-2 = type: cell-based; conditions: Homo sapiens; SK-MEL-2, 10^–5 M; read-out: GI (%)
Method in brief: as §1

SK-MEL-5 = type: cell-based; conditions: Homo sapiens; SK-MEL-5, 10^–5 M; read-out: GI (%)
Method in brief: as §1

SK-OV-3 = type: cell-based; conditions: Homo sapiens; SK-OV-3, 10^–5 M; read-out: GI (%)
Method in brief: as §1

SN12C = type: cell-based; conditions: Homo sapiens, 10^–5 M, read-out: GI (%)
Method in brief: as §1

SNB-19 = type: cell-based; conditions: Homo sapiens; SNB-19, 10^–5 M; read-out: GI (%)
Method in brief: as §1

SNB-75 = type: cell-based; conditions: Homo sapiens; SNB-75, 10^–5 M; read-out: GI (%)
Method in brief: as §1

SW-620 = type: cell-based; conditions: Homo sapiens; SW-620, 10^–5 M; read-out: GI (%)
Method in brief: as §1

UACC-257 = type: cell-based; conditions: Homo sapiens; UACC-257, 10^–5 M; read-out: GI (%)
Method in brief: as §1

UACC-62 = type: cell-based; conditions: Homo sapiens; UACC-62, 10^–5 M; read-out: GI (%)
Method in brief: as §1

Compound	inhibition at 10 µM (EKVX) [%]	inhibition at 10 µM (NCI-H226) [%]	inhibition at 10 µM (786-0) [%]	inhibition at 10 µM (A498) [%]	inhibition at 10 µM (A549/ATCC) [%]	inhibition at 10 µM (CAKI-1) [%]	inhibition at 10 µM (CCRF-CEM) [%]	inhibition at 10 µM (COLO205) [%]	inhibition at 10 µM (HCC-2998) [%]	inhibition at 10 µM (HCT-116) [%]	inhibition at 10 µM (HCT-15) [%]	inhibition at 10 µM (HL-60(TB)) [%]	inhibition at 10 µM (HOP-92) [%]	inhibition at 10 µM (IGROV1) [%]	inhibition at 10 µM (K-562) [%]	inhibition at 10 µM (KM12) [%]	inhibition at 10 µM (LOX IMVI) [%]	inhibition at 10 µM (MCF7) [%]	inhibition at 10 µM (MDA-MB-231/ATCC) [%]	inhibition at 10 µM (NCI-H23) [%]	further results
COc1ccc(C2C=C(Nc3ccc(I)cc3)C(=O)N2c2ccc(I)cc2)cc1OC (stereo not shown) [3j]	40	0	0	0	5	5	0	9	0	0	0	0	0	0	0	0	8	6	0	8	inhibition at 10 µM (NCI-H322M): 0%; inhibition at 10 µM (NCI/ADR-RES): 0%; inhibition at 10 µM (OVCAR-3): 0%; inhibition at 10 µM (OVCAR-5): 0%; inhibition at 10 µM (OVCAR-8): 0%; inhibition at 10 µM (PC-3): 0%; inhibition at 10 µM (SF-539): 28%; inhibition at 10 µM (SK-MEL-28): 0%; inhibition at 10 µM (SK-MEL-2): 0%; inhibition at 10 µM (SK-MEL-5): 11%; inhibition at 10 µM (SK-OV-3): 0%; inhibition at 10 µM (SN12C): 0%; inhibition at 10 µM (SNB-19): 0%; inhibition at 10 µM (SNB-75): 0%; inhibition at 10 µM (SW-620): 0%; inhibition at 10 µM (UACC-257): 0%; inhibition at 10 µM (UACC-62): 0%
COc1cc(OC)c(C2C=C(Nc3ccc(I)cc3)C(=O)N2c2ccc(I)cc2)cc1OC (stereo not shown) [3k]	0	0	3	0	3	15	0	0	5	4	0	2	0	2	0	2	5	23	0	0	inhibition at 10 µM (NCI-H322M): 4%; inhibition at 10 µM (NCI/ADR-RES): 0%; inhibition at 10 µM (OVCAR-3): 0%; inhibition at 10 µM (OVCAR-5): 0%; inhibition at 10 µM (OVCAR-8): 0%; inhibition at 10 µM (PC-3): 0%; inhibition at 10 µM (SF-539): 18%; inhibition at 10 µM (SK-MEL-28): 0%; inhibition at 10 µM (SK-MEL-2): 0%; inhibition at 10 µM (SK-MEL-5): 12%; inhibition at 10 µM (SK-OV-3): 0%; inhibition at 10 µM (SN12C): 2%; inhibition at 10 µM (SNB-19): 0%; inhibition at 10 µM (SNB-75): 0%; inhibition at 10 µM (SW-620): 0%; inhibition at 10 µM (UACC-257): 0%; inhibition at 10 µM (UACC-62): 0%
N#Cc1ccc(C2C=C(Nc3ccc(I)cc3)C(=O)N2c2ccc(I)cc2)cc1 (stereo not shown) [3l]	100	100	55	88	31	62	74	46	50	48	21	0	75	54	14	52	89	52	100	36	GI (%) (NCI-H226): 100 ^i1%; inhibition at 10 µM (NCI-H322M): 51%; inhibition at 10 µM (NCI/ADR-RES): 37%; inhibition at 10 µM (OVCAR-3): 60%; inhibition at 10 µM (OVCAR-5): 11%; inhibition at 10 µM (OVCAR-8): 30%; inhibition at 10 µM (PC-3): 45%; inhibition at 10 µM (SF-539): 35%; inhibition at 10 µM (SK-MEL-28): 29%; inhibition at 10 µM (SK-MEL-2): 100%; inhibition at 10 µM (SK-MEL-5): 24%; inhibition at 10 µM (SK-OV-3): 75%; inhibition at 10 µM (SN12C): 59%; inhibition at 10 µM (SNB-19): 35%; inhibition at 10 µM (SNB-75): 100%; inhibition at 10 µM (SW-620): 50%; inhibition at 10 µM (UACC-257): 21%; inhibition at 10 µM (UACC-62): 17%
